Results as given in ChEMBL document CHEMBL1138190, “Synthesis and antibacterial activity of novel C12 vinyl ketolides” (J Med Chem, 2006).
Values after ≈ are worked out from the molar mass of the structure shown.

Columns and labels:
Format in all cases: functional
Haemophilus influenzae [1] = test: Antibacterial activity against Haemophilus influenzae 2762
Staphylococcus aureus [2] = test: Antibacterial activity against Staphylococcus aureus 29213
Staphylococcus aureus [3] = test: Antibacterial activity against Staphylococcus aureus 33591
[4] = system: Staphylococcus epidermidis; test: Antibacterial activity against Staphylococcus epidermidis 14990
[5] = system: Staphylococcus epidermidis; test: Antibacterial activity against Staphylococcus epidermidis f50654
Enterococcus faecalis [6] = test: Antibacterial activity against Enterococcus faecalis 29212
Enterococcus faecalis [7] = test: Antibacterial activity against Enterococcus faecalis bc11148-2
Streptococcus pyogenes = test: Antibacterial activity against Streptococcus pyogenes 8668
Streptococcus pneumoniae [8] = test: Antibacterial activity against Streptococcus pneumoniae 49619
Streptococcus pneumoniae [9] = test: Antibacterial activity against Streptococcus pneumoniae 297-749
Streptococcus pneumoniae [10] = test: Antibacterial activity against Streptococcus pneumoniae 280-962
Streptococcus pneumoniae [11] = test: Antibacterial activity against Streptococcus pneumoniae Erm 6849
Streptococcus pneumoniae [12] = test: Antibacterial activity against Streptococcus pneumoniae Mef 5654
Streptococcus pneumoniae [13] = test: Antibacterial activity against Streptococcus pneumoniae Mef S 3427
Haemophilus influenzae [14] = test: Antibacterial activity against Haemophilus influenzae 49247

Compound | MIC (Haemophilus influenzae [1]) [µg/mL] | MIC (Staphylococcus aureus [2]) [µg/mL] | MIC (Staphylococcus aureus [3]) [µg/mL] | MIC [4] [µg/mL] | MIC [5] [µg/mL] | MIC (Enterococcus faecalis [6]) [µg/mL] | MIC (Enterococcus faecalis [7]) [µg/mL] | MIC (Streptococcus pyogenes) [µg/mL] | MIC (Streptococcus pneumoniae [8]) [µg/mL] | MIC (Streptococcus pneumoniae [9]) [µg/mL] | MIC (Streptococcus pneumoniae [10]) [µg/mL] | MIC (Streptococcus pneumoniae [11]) [µg/mL] | MIC (Streptococcus pneumoniae [12]) [µg/mL] | MIC (Streptococcus pneumoniae [13]) [µg/mL] | MIC (Haemophilus influenzae [14]) [µg/mL]
C=C[C@]12OC(=O)N(CCCCn3cnc(-c4cncnc4)c3)[C@@H]1[C@@H](C)C(=O)[C@H](C)C[C@@](C)(OC)[C@H](O[C@@H]1O[C@H](C)C[C@H](N(C)C)[C@H]1O)[C@@H](C)C(=O)[C@@H](C)C(=O)O[C@@H]2CC | 1.56 (≈ 1.89 µM) | 0.2 (≈ 0.242 µM) | > 50 | 0.2 (≈ 0.242 µM) | 0.2 (≈ 0.242 µM) | 0.1 (≈ 0.121 µM) | 0.4 (≈ 0.485 µM) | ≤ 0.05 | ≤ 0.05 | ≤ 0.05 | ≤ 0.05 | 0.2 (≈ 0.242 µM) | 0.78 (≈ 0.945 µM) | 0.1 (≈ 0.121 µM) | 3.13 (≈ 3.79 µM)
C=C[C@]12OC(=O)N(CCCCn3cc(-c4ccc(Cl)nc4)nc3C)[C@@H]1[C@@H](C)C(=O)[C@H](C)C[C@@](C)(OC)[C@H](O[C@@H]1O[C@H](C)C[C@H](N(C)C)[C@H]1O)[C@@H](C)C(=O)[C@@H](C)C(=O)O[C@@H]2CC | 1.56 (≈ 1.79 µM) | 0.2 (≈ 0.229 µM) | > 50 | 0.1 (≈ 0.115 µM) | 0.2 (≈ 0.229 µM) | 0.1 (≈ 0.115 µM) | 3.13 (≈ 3.59 µM) | ≤ 0.05 | ≤ 0.05 | ≤ 0.05 | ≤ 0.05 | 0.4 (≈ 0.458 µM) | 0.78 (≈ 0.894 µM) | ≤ 0.05 | 6.25 (≈ 7.16 µM)
C=C[C@]12OC(=O)N(CCCCn3cnc(-c4ccc(N(C)C)nc4)c3)[C@@H]1[C@@H](C)C(=O)[C@H](C)C[C@@](C)(OC)[C@H](O[C@@H]1O[C@H](C)C[C@H](N(C)C)[C@H]1O)[C@@H](C)C(=O)[C@@H](C)C(=O)O[C@@H]2CC | 1.56 (≈ 1.8 µM) | 0.2 (≈ 0.231 µM) | > 50 | 0.2 (≈ 0.231 µM) | 0.2 (≈ 0.231 µM) | 0.1 (≈ 0.115 µM) | 0.78 (≈ 0.9 µM) | ≤ 0.05 | ≤ 0.05 | ≤ 0.05 | ≤ 0.05 | 0.78 (≈ 0.9 µM) | 1.56 (≈ 1.8 µM) | 0.2 (≈ 0.231 µM) | 12.5 (≈ 14.4 µM)
C=C[C@]12OC(=O)N(CCCCn3cnc(-c4ccc(F)nc4)c3)[C@@H]1[C@@H](C)C(=O)[C@H](C)C[C@@](C)(OC)[C@H](O[C@@H]1O[C@H](C)C[C@H](N(C)C)[C@H]1O)[C@@H](C)C(=O)[C@@H](C)C(=O)O[C@@H]2CC | 1.56 (≈ 1.85 µM) | 0.1 (≈ 0.119 µM) | > 50 | 0.1 (≈ 0.119 µM) | 0.1 (≈ 0.119 µM) | 0.1 (≈ 0.119 µM) | 0.4 (≈ 0.475 µM) | ≤ 0.05 | ≤ 0.05 | ≤ 0.05 | ≤ 0.05 | 0.78 (≈ 0.926 µM) | 0.4 (≈ 0.475 µM) | 0.1 (≈ 0.119 µM) | 3.13 (≈ 3.72 µM)
C=C[C@]12OC(=O)N(CCCCn3cnc(-c4ccc(OC)nc4)c3C)[C@@H]1[C@@H](C)C(=O)[C@H](C)C[C@@](C)(OC)[C@H](O[C@@H]1O[C@H](C)C[C@H](N(C)C)[C@H]1O)[C@@H](C)C(=O)[C@@H](C)C(=O)O[C@@H]2CC | 1.56 (≈ 1.8 µM) | 0.2 (≈ 0.23 µM) | > 50 | 0.1 (≈ 0.115 µM) | 0.4 (≈ 0.461 µM) | 0.2 (≈ 0.23 µM) | 1.56 (≈ 1.8 µM) | ≤ 0.05 | ≤ 0.05 | ≤ 0.05 | ≤ 0.05 | 0.4 (≈ 0.461 µM) | 1.56 (≈ 1.8 µM) | 0.2 (≈ 0.23 µM) | 6.25 (≈ 7.2 µM)

Continued, values first:

MIC (Haemophilus influenzae [1]) [µg/mL] | MIC (Staphylococcus aureus [2]) [µg/mL] | MIC (Staphylococcus aureus [3]) [µg/mL] | MIC [4] [µg/mL] | MIC [5] [µg/mL] | MIC (Enterococcus faecalis [6]) [µg/mL] | MIC (Enterococcus faecalis [7]) [µg/mL] | MIC (Streptococcus pyogenes) [µg/mL] | MIC (Streptococcus pneumoniae [8]) [µg/mL] | MIC (Streptococcus pneumoniae [9]) [µg/mL] | MIC (Streptococcus pneumoniae [10]) [µg/mL] | MIC (Streptococcus pneumoniae [11]) [µg/mL] | MIC (Streptococcus pneumoniae [12]) [µg/mL] | MIC (Streptococcus pneumoniae [13]) [µg/mL] | MIC (Haemophilus influenzae [14]) [µg/mL] | Compound
0.78 (≈ 0.977 µM) | 0.2 (≈ 0.251 µM) | > 50 | 0.1 (≈ 0.125 µM) | 0.4 (≈ 0.501 µM) | 0.1 (≈ 0.125 µM) | 0.78 (≈ 0.977 µM) | ≤ 0.05 | ≤ 0.05 | ≤ 0.05 | ≤ 0.05 | 3.13 (≈ 3.92 µM) | 1.56 (≈ 1.95 µM) | 0.2 (≈ 0.251 µM) | 1.56 (≈ 1.95 µM) | C=C[C@]12OC(=O)N(CCCCn3cnc4ncccc43)[C@@H]1[C@@H](C)C(=O)[C@H](C)C[C@@](C)(OC)[C@H](O[C@@H]1O[C@H](C)C[C@H](N(C)C)[C@H]1O)[C@@H](C)C(=O)[C@@H](C)C(=O)O[C@@H]2CC
3.13 (≈ 3.68 µM) | 0.2 (≈ 0.235 µM) | > 50 | 0.2 (≈ 0.235 µM) | 0.2 (≈ 0.235 µM) | 0.1 (≈ 0.118 µM) | 0.2 (≈ 0.235 µM) | ≤ 0.05 | ≤ 0.05 | ≤ 0.05 | ≤ 0.05 | ≤ 0.05 | 0.4 (≈ 0.471 µM) | 0.1 (≈ 0.118 µM) | 6.25 (≈ 7.35 µM) | C=C[C@]12OC(=O)N(CCN(C)Cc3ccnc(-c4cccnc4)c3)[C@@H]1[C@@H](C)C(=O)[C@H](C)C[C@@](C)(OC)[C@H](O[C@@H]1O[C@H](C)C[C@H](N(C)C)[C@H]1O)[C@@H](C)C(=O)[C@@H](C)C(=O)O[C@@H]2CC
